Counter-ions that a name gives are not always drawn.
Molecular target: CRBN-DDB1 (Homo sapiens (Human), UniProt Q96SW2)
Assay: Fluorescence polarization (FP) assay for compound ligand binding to CRBN-DDB1
Conditions: FP displacement of (−)-Thalidomide-Alexa Fluor or Pomalidomide-fluorescein probe, 400 nM CRBN-DDB1, 5 nM probe
Description: Measuring compound ligand binding to CRBN-DDB1 was carried out using an established sensitive and quantitative in vitro fluorescence polarization (FP) based binding assay. […] Compounds were dispensed from serially diluted DMSO stock into black 384-well compatible fluorescence polarization plates using an Echo acoustic dispenser. Compound binding to CRBN-DDB1 was measured by displacement of either a (−)-Thalidomide-Alexa Fluor® or Pomalidomide-fluorescein conjugated probe dye. […] Matching control wells excluding CRBN-DDB1 were used to correct for background fluorescence. Plates were read on an Envision plate reader with appropriate FP filter sets. The corrected S (perpendicular) and P (parallel) values were used to calculate fluorescence polarization (FP) with the following equation: […]

[1] = Compounds of the Present Invention
[2] = Additional Compounds of the Present Invention

CRBN-DDB1, sequence (Q96SW2 whole entry): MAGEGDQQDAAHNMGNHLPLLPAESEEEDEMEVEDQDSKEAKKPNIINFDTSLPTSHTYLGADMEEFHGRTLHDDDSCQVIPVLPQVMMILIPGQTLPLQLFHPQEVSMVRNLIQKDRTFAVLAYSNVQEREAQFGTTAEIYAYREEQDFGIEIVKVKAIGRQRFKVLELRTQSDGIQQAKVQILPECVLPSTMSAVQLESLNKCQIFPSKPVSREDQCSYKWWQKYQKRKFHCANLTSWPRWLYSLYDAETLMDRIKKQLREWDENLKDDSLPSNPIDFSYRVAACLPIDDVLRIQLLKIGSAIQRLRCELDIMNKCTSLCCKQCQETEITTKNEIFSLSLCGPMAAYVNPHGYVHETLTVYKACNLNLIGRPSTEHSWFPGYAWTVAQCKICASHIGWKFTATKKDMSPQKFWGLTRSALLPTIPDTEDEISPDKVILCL
CRBN-DDB1, sequence (Q16531 whole entry partner): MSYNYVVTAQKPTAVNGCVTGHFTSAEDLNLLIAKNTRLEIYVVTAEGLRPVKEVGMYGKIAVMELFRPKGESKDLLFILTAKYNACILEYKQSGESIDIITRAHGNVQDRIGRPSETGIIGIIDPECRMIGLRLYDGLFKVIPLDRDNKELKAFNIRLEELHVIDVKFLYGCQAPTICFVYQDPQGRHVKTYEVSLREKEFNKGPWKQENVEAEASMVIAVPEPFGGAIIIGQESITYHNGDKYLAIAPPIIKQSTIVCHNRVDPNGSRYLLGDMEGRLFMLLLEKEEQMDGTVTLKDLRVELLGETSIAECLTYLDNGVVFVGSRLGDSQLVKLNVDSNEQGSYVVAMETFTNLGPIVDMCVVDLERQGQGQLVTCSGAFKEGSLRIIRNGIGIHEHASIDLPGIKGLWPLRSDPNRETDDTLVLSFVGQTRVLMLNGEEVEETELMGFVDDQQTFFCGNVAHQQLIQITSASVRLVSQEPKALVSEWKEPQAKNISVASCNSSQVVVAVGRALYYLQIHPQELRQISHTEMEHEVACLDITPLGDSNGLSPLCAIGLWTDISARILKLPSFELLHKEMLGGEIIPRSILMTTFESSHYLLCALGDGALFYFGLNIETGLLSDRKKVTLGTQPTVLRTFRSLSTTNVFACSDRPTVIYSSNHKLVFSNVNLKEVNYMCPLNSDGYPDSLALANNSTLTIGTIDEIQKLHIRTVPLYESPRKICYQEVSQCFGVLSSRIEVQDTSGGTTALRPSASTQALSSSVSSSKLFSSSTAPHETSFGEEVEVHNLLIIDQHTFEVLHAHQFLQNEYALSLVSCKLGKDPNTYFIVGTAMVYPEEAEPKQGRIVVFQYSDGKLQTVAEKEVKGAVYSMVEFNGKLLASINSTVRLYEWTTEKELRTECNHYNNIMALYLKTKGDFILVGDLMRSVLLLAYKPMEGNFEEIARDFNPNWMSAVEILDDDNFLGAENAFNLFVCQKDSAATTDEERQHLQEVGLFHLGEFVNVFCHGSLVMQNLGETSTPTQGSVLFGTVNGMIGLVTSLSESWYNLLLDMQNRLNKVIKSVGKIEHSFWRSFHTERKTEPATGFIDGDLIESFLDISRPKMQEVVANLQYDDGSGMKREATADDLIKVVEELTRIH

Kd [1] [µM] | Kd [2] [µM] | SMILES
< 10 | – | COc1ccc(NC2CCC(=O)NC2=O)cc1F (stereo not drawn) [Compound 7]
< 10 | – | O=C1CCC(Nc2cccc(F)c2)C(=O)N1 (stereo not drawn) [Compound 9]
< 10 | – | COc1cc(F)ccc1NC1CCC(=O)NC1=O (stereo not drawn) [Compound 10]
< 10 | – | COc1ccc(NC2CCC(=O)NC2=O)c(F)c1 (stereo not drawn) [Compound 11]
< 10 | – | COc1cccc(NC2CCC(=O)NC2=O)c1 (stereo not drawn) [Compound 13]
< 10 | – | COc1ccccc1NC1CCC(=O)NC1=O (stereo not drawn) [Compound 15]
< 10 | – | COc1cccc(N(C)C2CCC(=O)NC2=O)c1 (stereo not drawn) [Compound 16]
< 10 | – | Cc1cccc(N(C)C2CCC(=O)NC2=O)c1 (stereo not drawn) [Compound 18]
< 10 | – | COc1ccc(NC2CCC(=O)NC2=O)c(C)c1 (stereo not drawn) [Compound 36]
< 10 | – | O=C1CCC(Nc2cccc(-c3cnco3)c2)C(=O)N1 (stereo not drawn) [Compound 39]
< 10 | – | O=C1CCC(Nc2cccc(Cl)c2)C(=O)N1 (stereo not drawn) [Compound 40]
< 10 | – | COc1ccc(C)cc1NC1CCC(=O)NC1=O (stereo not drawn) [Compound 42]
< 10 | – | COc1ccc(Cl)c(NC2CCC(=O)NC2=O)c1 (stereo not drawn) [Compound 44]
< 10 | – | O=C1CCC(Nc2cc(F)ccc2Cl)C(=O)N1 (stereo not drawn) [Compound 45]
< 10 | – | COc1ccc(NC2CCC(=O)NC2=O)cc1Cl (stereo not drawn) [Compound 46]
< 10 | – | COc1cc(Cl)ccc1NC1CCC(=O)NC1=O (stereo not drawn) [Compound 47]
< 10 | – | COc1ccc(Cl)cc1NC1CCC(=O)NC1=O (stereo not drawn) [Compound 48]
< 10 | – | Cc1ccccc1NC1CCC(=O)NC1=O (stereo not drawn) [Compound 50]
< 10 | – | O=C1CCC(Nc2c(F)cccc2Cl)C(=O)N1 (stereo not drawn) [Compound 54]
< 10 | – | O=C1CCC(Nc2ccccc2OC(F)F)C(=O)N1 (stereo not drawn) [Compound 55]

Kd [1] [µM] | Kd [2] [µM] | SMILES
< 10 | – | CN(c1cccc(Br)c1)C1CCC(=O)NC1=O (stereo not drawn) [Compound 57]
< 10 | – | Cc1ccccc1N(C)C1CCC(=O)NC1=O (stereo not drawn) [Compound 61]
< 10 | – | COc1c(Cl)cccc1NC1CCC(=O)NC1=O (stereo not drawn) [Compound 62]
< 10 | – | Cc1cccc(NC2CCC(=O)NC2=O)c1C#N (stereo not drawn) [Compound 65]
< 10 | – | COc1ccc(NC2CCC(=O)NC2=O)c(OC)c1 (stereo not drawn) [Compound 70]
< 10 | – | CN1CCN(c2ccc(OC3CCC(=O)NC3=O)cc2)CC1 (stereo not drawn) [Compound 126]
– | < 10 | O=C1CCC(Oc2ccc3ccccc3c2)C(=O)N1 (stereo not drawn) [Compound 135]
– | > 100 | O=C1CCC(Oc2ccccc2C(=O)N2CCCC2)C(=O)N1 (stereo not drawn) [Compound 136]
– | < 10 | CCc1ccc(OC2CCC(=O)NC2=O)cc1 (stereo not drawn) [Compound 137]
– | < 10 | N#Cc1ccc2cc(OC3CCC(=O)NC3=O)ccc2c1 (stereo not drawn) [Compound 138]
– | < 10 | Cn1ccc2cc(OC3CCC(=O)NC3=O)ccc21 (stereo not drawn) [Compound 140]
– | < 10 | CCOc1cccc(OC2CCC(=O)NC2=O)c1 (stereo not drawn) [Compound 141]
– | < 10 | CC1(C)Cc2cccc(OC3CCC(=O)NC3=O)c2O1 (stereo not drawn) [Compound 145]
– | < 10 | O=C1CCC(Oc2cccc3cccnc23)C(=O)N1 (stereo not drawn) [Compound 147]
– | < 10 | O=C1CCC(Oc2ccc3c(c2)CCCC3=O)C(=O)N1 (stereo not drawn) [Compound 148]
– | < 10 | O=C1CCC(Oc2ccc3c(c2)OCO3)C(=O)N1 (stereo not drawn) [Compound 149]
– | < 10 | C#Cc1cccc(OC2CCC(=O)NC2=O)c1 (stereo not drawn) [Compound 150]
– | < 10 | CN(C)c1cccc(OC2CCC(=O)NC2=O)c1 (stereo not drawn) [Compound 151]
– | < 10 | O=C1CCC(Oc2ccc(C3CCCC3)cc2)C(=O)N1 (stereo not drawn) [Compound 152]

Further lines, the compound ahead of its results:

SMILES | Kd [1] [µM] | Kd [2] [µM]
CN(c1ccccc1)C1CCC(=O)NC1=O (stereo not drawn) [Compound 1] | < 10 | –
O=C1CCC(Nc2cccc(-c3ccccc3)c2)C(=O)N1 (stereo not drawn) [Compound 3] | < 10 | –
COc1cc(Cl)c(C)cc1NC1CCC(=O)NC1=O (stereo not drawn) [Compound 4] | < 10 | –
O=C1CCC(Nc2ccccc2-c2ccccc2)C(=O)N1 (stereo not drawn) [Compound 5] | < 10 | –
O=C1CCC(Nc2ccc(-c3ccccc3)cc2)C(=O)N1 (stereo not drawn) [Compound 6] | < 10 | –
Cc1ccc(NC2CCC(=O)NC2=O)cc1C#N (stereo not drawn) [Compound 12] | < 10 | –
O=C1CCC(Nc2cc(Cl)ccc2O)C(=O)N1 (stereo not drawn) [Compound 19] | < 10 | –
COc1ccc(N(C)C2CCC(=O)NC2=O)cc1 (stereo not drawn) [Compound 20] | < 10 | –
O=C1CCC(Nc2cccc(-c3ccccn3)c2)C(=O)N1 (stereo not drawn) [Compound 22] | < 10 | –
O=C1CCC(Nc2ccccc2Oc2ccccc2)C(=O)N1 (stereo not drawn) [Compound 23] | < 10 | –
O=C1CCC(Nc2ccc(C(F)(F)F)cc2)C(=O)N1 (stereo not drawn) [Compound 26] | < 10 | –
O=C1CCC(Nc2ccc(CN3CCOCC3)cc2)C(=O)N1 (stereo not drawn) [Compound 27] | < 10 | –
O=C1CCC(Nc2ccc(Oc3ccccc3)cc2)C(=O)N1 (stereo not drawn) [Compound 28] | < 10 | –
COc1cc(NC2CCC(=O)NC2=O)cc(C(F)(F)F)c1 (stereo not drawn) [Compound 29] | < 10 | –
O=C1CCC(Nc2cccc(Oc3ccccc3)c2)C(=O)N1 (stereo not drawn) [Compound 30] | < 10 | –
CCCOc1ccc(NC2CCC(=O)NC2=O)cc1 (stereo not drawn) [Compound 31] | < 10 | –
CN(c1ccc(Br)cc1)C1CCC(=O)NC1=O (stereo not drawn) [Compound 32] | < 10 | –
CN(c1cccc(F)c1)C1CCC(=O)NC1=O (stereo not drawn) [Compound 33] | < 10 | –
CN(c1cccc(Cl)c1)C1CCC(=O)NC1=O (stereo not drawn) [Compound 34] | < 10 | –
O=C1CCC(Nc2cccc(C(F)(F)F)c2)C(=O)N1 (stereo not drawn) [Compound 35] | < 10 | –

SMILES | Kd [1] [µM] | Kd [2] [µM]
O=C1CCC(Nc2ccc(Cl)cc2)C(=O)N1 (stereo not drawn) [Compound 37] | < 10 | –
Cc1ccc(NC2CCC(=O)NC2=O)cc1 (stereo not drawn) [Compound 38] | < 10 | –
CC(C)(C)c1ccccc1NC1CCC(=O)NC1=O (stereo not drawn) [Compound 41] | < 10 | –
O=C1CCC(Nc2ccc(F)cc2Cl)C(=O)N1 (stereo not drawn) [Compound 43] | < 10 | –
O=C1CCC(Nc2ccccc2Cl)C(=O)N1 (stereo not drawn) [Compound 49] | < 10 | –
Cn1ccc2cc(NC3CCC(=O)NC3=O)ccc21 (stereo not drawn) [Compound 51] | < 10 | –
COc1ccc(NC2CCC(=O)NC2=O)cc1 (stereo not drawn) [Compound 52] | < 10 | –
O=C1CCC(Nc2ccccc2F)C(=O)N1 (stereo not drawn) [Compound 53] | < 10 | –
N#Cc1cccc(NC2CCC(=O)NC2=O)c1 (stereo not drawn) [Compound 56] | < 10 | –
CN(c1cccc(C(F)(F)F)c1)C1CCC(=O)NC1=O (stereo not drawn) [Compound 58] | < 10 | –
CN(c1ccc(C(F)(F)F)cc1)C1CCC(=O)NC1=O (stereo not drawn) [Compound 59] | < 10 | –
CN(c1ccc(Cl)c(Cl)c1)C1CCC(=O)NC1=O (stereo not drawn) [Compound 60] | < 10 | –
O=C1CCC(Nc2cccc(N3CCOCC3)c2)C(=O)N1 (stereo not drawn) [Compound 64] | < 10 | –
CN1CCN(c2ccc(NC3CCC(=O)NC3=O)cc2)CC1 (stereo not drawn) [Compound 66] | < 10 | –
O=C1CCC(Nc2ccc(N3CCOCC3)cc2)C(=O)N1 (stereo not drawn) [Compound 67] | < 10 | –
Cc1ccc(C#N)cc1NC1CCC(=O)NC1=O (stereo not drawn) [Compound 68] | > 100 | –
O=C1CCC(Nc2cccc3ccccc23)C(=O)N1 (stereo not drawn) [Compound 77] | < 10 | –
CC(C)(C)OC(=O)N1CCc2cc(NC3CCC(=O)NC3=O)ccc2C1 (stereo not drawn) [Compound 79] | < 10 | –
CC(C)(C)OC(=O)N1CCC(c2ccc(NC3CCC(=O)NC3=O)cc2)CC1 (stereo not drawn) [Compound 81] | < 10 | –
CC(C)(C)OC(=O)N1CCN(c2cccc(NC3CCC(=O)NC3=O)c2)CC1 (stereo not drawn) [Compound 82] | < 10 | –

SMILES | Kd [1] [µM] | Kd [2] [µM]
O=C1CCC(Nc2ccc(C3CCNCC3)cc2)C(=O)N1 (stereo not drawn) [Compound 85] | < 10 | –
O=C1CCC(Nc2cccc(N3CCNCC3)c2)C(=O)N1 (stereo not drawn) [Compound 86] | < 10 | –
CN(c1cccc(N2CCN(C(=O)OC(C)(C)C)CC2)c1)C1CCC(=O)NC1=O (stereo not drawn) [Compound 88] | < 10 | –
CC(C)(C)OC(=O)n1cc(C#N)c(NC2CCC(=O)NC2=O)n1 (stereo not drawn) [Compound 95] | > 100 | –
N#Cc1c[nH]nc1NC1CCC(=O)NC1=O (stereo not drawn) [Compound 96] | > 100 | –
CN(C1COC1)C1CCC(=O)NC1=O (stereo not drawn) [Compound 97] | > 100 | –
O=C1CCC(NC2CC(=O)N(c3ccccc3)C2)C(=O)N1 (stereo not drawn) [Compound 99] | > 100 | –
CN(C1CNC1)C1CCC(=O)NC1=O (stereo not drawn) [Compound 101] | > 100 | –
CN1CC(N(C)C2CCC(=O)NC2=O)C1 (stereo not drawn) [Compound 102] | > 100 | –
CN1CCC(N(C)C2CCC(=O)NC2=O)CC1=O (stereo not drawn) [Compound 106] | > 100 | –
CN(CC(=O)O)C1CCC(=O)NC1=O (stereo not drawn) [Compound 107] | > 100 | –
CNC(=O)CN(C)C1CCC(=O)NC1=O (stereo not drawn) [Compound 109] | > 100 | –
CC(C)(C)OC(=O)N1CCN(C2=CC(=O)NC2=O)CC1 [Compound 111] | > 100 | –
O=C1C=C(Nc2ccccc2)C(=O)N1 [Compound 112] | > 100 | –
O=C1CCC(N2CCc3cccnc32)C(=O)N1 (stereo not drawn) [Compound 118] | > 100 | –
COC(=O)c1cccnc1NC1CCC(=O)NC1=O (stereo not drawn) [Compound 122] | > 100 | –
CC(C)(C)OC(=O)N1CCN(c2ccc(OC3CCC(=O)NC3=O)cc2)CC1 (stereo not drawn) [Compound 132, 4-[4-(2,6-Dioxo-piperidin-3-yloxy)-phenyl]-piperazine-1-carboxylic acid tert-butyl ester] | – | < 10
O=C1CCC(Oc2ccc(N3CCNCC3)cc2)C(=O)N1 (stereo not drawn) [Compound 133, 3-(4-Piperazin-1-yl-phenoxy)-piperidine-2,6-dione hydrochloride] | – | < 10
O=C1CCC(OC2CCN(c3ccccc3)CC2)C(=O)N1 (stereo not drawn) [Compound 134, 3-(1-Phenyl-piperidin-4-yloxy)-piperidine-2,6-dione] | – | > 100
N#Cc1ccc(-c2ccc(OC3CCC(=O)NC3=O)cc2)cc1 (stereo not drawn) [Compound 139] | – | < 10
